Laboratory results published in ChEMBL document CHEMBL3751675, “Characterization of isobutylhydroxyamides with NGF-potentiating activity from Zanthoxylum bungeanum” (Bioorg Med Chem Lett, 2016).
Activity calls are given as the source filed them. The rule behind the calls is not given here.

What was measured:
[1] = test system: HCT-116; test: Cytotoxicity against human HCT116 cells at 50 uM; format: functional, cell-based
[2] = test system: PC-12; test: Stimulation of NGF-induced neurite outgrowth in rat PC12 cells at 20 uM incubated for 48 hrs by phase contrast microscopy; format: functional, cell-based
[3] = Cytotoxicity against rat PC12 cells assessed as reduction in cell viability up to 50 uM by MTT assay; format: cell-based; details: pc-12
[4] = Antioxidant activity assessed as DPPH radical scavenging activity at 50 uM; format: physicochemical
[5] = Cytotoxicity against NF1 and p53 deficient mouse glioma cells assessed as growth inhibition at 2 ug/ml after 2 days; format: functional; details: Glioma cell, 48 h
[6] = Cytotoxicity against rat PC12 cells assessed as induction of morphological changes at 20 uM after 48 hrs by phase contrast microscopy in absence of NGF; format: cell-based; details: pc-12, 48 h
[7] = molecular target: T1, Peroxisome proliferator-activated receptor (Homo sapiens, UniProt P37231+Q07869+Q03181); test: Activation of PPAR (unknown origin) transactivation expressed in human HepG2 cells assessed as increase in transcriptional activity after 20 hrs by PPRE-luciferase reporter gene assay; format: cell-based
T1 sequence (P37231 whole entry): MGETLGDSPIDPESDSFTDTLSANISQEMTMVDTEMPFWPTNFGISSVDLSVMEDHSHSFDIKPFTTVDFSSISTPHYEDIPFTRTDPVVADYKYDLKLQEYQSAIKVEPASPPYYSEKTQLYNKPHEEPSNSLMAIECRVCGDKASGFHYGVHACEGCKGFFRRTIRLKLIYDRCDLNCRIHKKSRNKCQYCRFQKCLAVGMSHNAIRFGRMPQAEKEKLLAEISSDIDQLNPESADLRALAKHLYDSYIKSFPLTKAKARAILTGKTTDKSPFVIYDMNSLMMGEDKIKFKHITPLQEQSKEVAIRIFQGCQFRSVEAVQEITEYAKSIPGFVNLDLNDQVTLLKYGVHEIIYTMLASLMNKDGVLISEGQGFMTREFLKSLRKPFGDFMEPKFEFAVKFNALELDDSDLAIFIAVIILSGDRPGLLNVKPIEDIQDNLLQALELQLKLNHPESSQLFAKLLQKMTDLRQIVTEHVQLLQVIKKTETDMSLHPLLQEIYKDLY
T1 sequence (Q07869 whole entry): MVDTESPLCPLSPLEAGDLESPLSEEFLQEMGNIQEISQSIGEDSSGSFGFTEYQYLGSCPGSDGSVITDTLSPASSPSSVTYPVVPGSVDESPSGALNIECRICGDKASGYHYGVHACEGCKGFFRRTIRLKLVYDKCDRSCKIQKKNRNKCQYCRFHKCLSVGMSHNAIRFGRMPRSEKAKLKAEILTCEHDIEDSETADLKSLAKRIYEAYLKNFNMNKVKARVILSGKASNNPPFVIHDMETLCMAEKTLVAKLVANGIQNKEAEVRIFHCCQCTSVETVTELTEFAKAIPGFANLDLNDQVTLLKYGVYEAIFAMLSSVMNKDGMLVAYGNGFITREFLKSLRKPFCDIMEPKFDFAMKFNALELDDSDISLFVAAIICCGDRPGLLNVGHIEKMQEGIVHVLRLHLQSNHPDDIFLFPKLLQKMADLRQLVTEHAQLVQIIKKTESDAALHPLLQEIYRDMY
T1 sequence (Q03181 whole entry): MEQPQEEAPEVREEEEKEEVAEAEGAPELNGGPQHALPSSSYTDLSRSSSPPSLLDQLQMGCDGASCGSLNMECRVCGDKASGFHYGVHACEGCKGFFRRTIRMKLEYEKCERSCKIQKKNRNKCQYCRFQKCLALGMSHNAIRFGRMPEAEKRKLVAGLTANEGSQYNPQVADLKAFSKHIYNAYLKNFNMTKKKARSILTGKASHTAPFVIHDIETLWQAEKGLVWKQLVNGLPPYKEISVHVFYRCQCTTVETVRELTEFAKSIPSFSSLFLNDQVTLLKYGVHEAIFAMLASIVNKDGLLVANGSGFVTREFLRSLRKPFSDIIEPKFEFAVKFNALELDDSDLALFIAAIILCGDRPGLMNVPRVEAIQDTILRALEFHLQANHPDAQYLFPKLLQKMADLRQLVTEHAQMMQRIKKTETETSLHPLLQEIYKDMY

| Compound | Activity [1] | Activity [2] | Activity [3] | Activity [4] | inhibition at 2 µg/mL [5] [%] | Activity [6] | EC50 [7] [µM] |
| --- | --- | --- | --- | --- | --- | --- | --- |
| CC(O)/C=C/C=C/C(O)CC/C=C/C(=O)NCC(C)(C)O (centres undefined) | inactive | Active | Non-toxic | Not Active | 41 |  |  |
| C[C@H](O)[C@H](O)/C=C/C=C\CC/C=C/C(=O)NCC(C)(C)O | inactive | Active | Non-toxic | Not Active | 31 | Non-toxic |  |
| CCOC(/C=C/C=C/C(C)O)CC/C=C/C(=O)NCC(C)(C)O (centres undefined) |  |  | Non-toxic |  |  |  |  |
| C[C@H](O)[C@@H](O)/C=C/C=C/CC/C=C/C(=O)NCC(C)(C)O | inactive | Active | Non-toxic | Not Active | 56 | Non-toxic | 12 |
| CC(O)/C=C/C=C/C(=O)C/C=C/C(=O)NCC(C)(C)O (centres undefined) | inactive | Active | Non-toxic | Not Active |  |  |  |
| CCOC(C)/C=C/C=C/C(O)CC/C=C/C(=O)NCC(C)(C)O (centres undefined) | inactive | Active | Non-toxic | Not Active |  |  |  |
| CC(O)/C=C/C=C/C(=O)CC/C=C/C(=O)NCC(C)(C)O (centres undefined) |  |  | Non-toxic |  |  |  |  |
| CC(=O)/C=C/C=C/C(O)CC/C=C/C(=O)NCC(C)(C)O (centres undefined) | inactive | Active | Non-toxic | Not Active | 52 |  | 19.1 |
